The values below are quoted from earlier work in patent publication US10738024B2, “Compounds for treatment of angiogenesis-mediated diseases” (Indiana University Research and Technology Corporation, priority 2013, dated 2020).

In series [1] the test system is cyclooxygenases 1 and 2. The conditions noted are these: purified enzymes; cited from earlier work.
The subject of series [2] is TNF-α, IL-6 and IL-8. The following applies: keratinocytes exposed to UV radiation; cited from earlier work.
In series [3] the test system is HUVECs. The following applies: cited from earlier work.
For series [4], the system named is p21^WAF1 (CDKN1A). The following applies: natural source compound; cited from earlier work.
The subject of series [5] is pathogenic neovascularization. The following applies: in vivo; cited from earlier work.
Series [6] has as its system choroidal neovascularization. The conditions noted are these: murine; cited from earlier work.
Series [7] deals with retina. The conditions noted are these: injection of 10 μM into the vitreous of normal adult mice; cited from earlier work.
Series [8] concerns JNK, p38 MAPK, ERK. The conditions noted are these: keratinocytes exposed to UV radiation; cited from earlier work.
The subject of series [9] is new vessel growth induced by bFGF. The following applies: chick chorioallantoic membrane model; cited from earlier work.
The subject of series [10] is Cdc2 (CDK1). The conditions noted are these: cited from earlier work.
Series [11] relates to NF-κB. The following applies: keratinocytes exposed to UV radiation; cited from earlier work.
Series [12] has as its system reactive oxygen species (ROS). The following applies: keratinocytes exposed to UV radiation; cited from earlier work.
The subject of series [13] is prostaglandin synthesis. The conditions noted are these: microsome assay; cited from earlier work.

Regarding `COc1ccc(CC2COc3cc(O)c(OC)c(O)c3C2=O)cc1O` (stereo not drawn) [cremastranone, 5,7-dihydroxy-3-(3-hydroxy-4-methoxybenzyl)-6-methoxychroman-4-one], the “function of cyclooxygenases 1 and 2” value in series [1] was “without marked effects”. Moreover, the “production of cytokines TNF-α, IL-6 and IL-8” value in series [2] is given as “blocked”. In addition, the “50% growth inhibitory (GI50) concentration value in HUVEC proliferation assay” value in [3] (reported for compound isolated from C. appendiculata) is “low micromolar range”. Also, in [3] (via G2/M phase cell cycle arrest), the “proliferation of HUVECs” value is “blockade of the proliferation”. Further, the “expression of p21^WAF1 (CDKN1A)” value in series [4] is “induces expression”. For the same molecule, the “blocking pathogenic neovascularization, oxygen-induced retinopathy model” value in series [5] is reported as “showed efficacy”. In addition, in [6], the “blocking pathogenic neovascularization, laser photocoagulation model of choroidal neovascularization” value is “showed efficacy”. Further, in series [7], the “apoptosis of retinal cells” value is on record as “nor did it induce apoptosis” and the “cytotoxic or inflammatory effects on the retina” value is “no cytotoxic or inflammatory effects”. Moreover, the “phosphorylation of MAPKs (JNK, p38, ERK)” value in [8] was “decreased phosphorylation”. Moreover, the “blocking new vessel growth induced by bFGF” value in [9] is on record as “as effective as retinoic acid”. For the same molecule, the “expression of Cdc2 (CDK1)” value in series [10] is “down-regulated”. Also, the “nuclear translocation of NF-κB” value in [11] is listed as “blocked nuclear translocation”. Further, the “production of reactive oxygen species (ROS)” value in series [12] is on record as “blocked”. Besides, the “prostaglandin synthesis from arachidonic acid” value in [13] was “blocked prostaglandin synthesis”.
